Results on twelve compounds are retold here after PubChem BioAssay (NCI).

Some test systems named below: HT29 colon; CAKI-1 renal; A498 renal; A549 NSCLC; SNB-75 CNS; KM12 colon; NCI-H522 lung; HOP-92 NSCLC; IGROV1 ovarian; RPMI-8226 leukemia.
What all share (experiment): NCI-60 cell line screen, 48 h

Molecules are shown by their SMILES.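 Five compound concentrations were applied to cells in 96-well plates for 48 hours; endpoints were derived by simple linear interpolation of the resulting dose-response curve. GI50: concentration for 50% inhibition of growth. TGI denotes the concentration required for complete inhibition of growth.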 A value given as a limit tells only on which side of the number the result lay.

Consider `CC1=NN(C(=O)CSc2nc3ccc(I)cc3c(=O)n2Cc2ccccc2)C(=O)C1`, for which the TGI is above 100 µM in the assay on HT29 colon; above 100 µM in the assay with CAKI-1 renal; 83.7 µM in the assay with A498 renal; above 100 µM in the assay with A549 NSCLC; 85.3 µM with SNB-75 CNS; above 100 µM in the assay with KM12 colon. The TGI in the assay with NCI-H522 lung is 21.2 µM; in the assay with HOP-92 NSCLC it was 70.7 µM; in the assay with IGROV1 ovarian it was 65.4 µM; with RPMI-8226 leukemia, above 100 µM.

As for `COc1ccc2c(c1)CCN1CCc3cc(OC)c(OC)cc3CC21` (centres undefined), the TGI with HT29 colon, with CAKI-1 renal, with A498 renal, with A549 NSCLC, in the assay with SNB-75 CNS and with KM12 colon was above 100 µM throughout. Besides, the TGI with NCI-H522 lung is above 10 µM; in the assay with HOP-92 NSCLC it was above 100 µM; with IGROV1 ovarian it was above 10 µM; in the assay with RPMI-8226 leukemia, above 100 µM.

For `CN(CCCNC(=O)c1nn(-c2ccc(Cl)cc2Cl)c2c1Cc1ccccc1-2)CCCNC(=O)c1nn(-c2ccc(Cl)cc2Cl)c2c1Cc1ccccc1-2`, the TGI in the assay on HT29 colon was 3.42 µM; in the assay on CAKI-1 renal, 2.95 µM; in the assay with A498 renal, 3.13 µM; with A549 NSCLC, 3.64 µM; in the assay with SNB-75 CNS it was 2.92 µM; with KM12 colon, 4.01 µM. Moreover, the TGI in the assay on NCI-H522 lung is 2.9 µM; in the assay with HOP-92 NSCLC, 3.06 µM; with RPMI-8226 leukemia it was 3 µM.

Turning to `Cc1cc(O)c(C(C)C)cc1C1(c2cc(C(C)C)c(O)cc2C)OC(=O)c2ccccc21`, the TGI in the assay with HT29 colon is 5.84 µM; in the assay on CAKI-1 renal, 18.4 µM; in the assay with A498 renal, 7.1 µM; in the assay with A549 NSCLC, 12.8 µM; in the assay on SNB-75 CNS, 6.16 µM; in the assay with KM12 colon, 3.33 µM. The TGI in the assay on NCI-H522 lung was 4.48 µM; with HOP-92 NSCLC it was 7.78 µM; in the assay on IGROV1 ovarian, 8.89 µM; in the assay on RPMI-8226 leukemia, 3.17 µM.

Turning to `C/C(=C/CC[C@]1(CO)CC[C@]2(CO)[C@H](CC[C@@H]3[C@@]4(C)CC[C@H](OC5OCC(O)C(O)C5OC5OC(CO)C(O)C(O)C5O)C(C)(C)[C@@H]4CC[C@]32C)[C@H]1O)CO` (some centres undefined), the TGI in the assay on HT29 colon, with CAKI-1 renal, in the assay with A498 renal, in the assay on A549 NSCLC, in the assay on SNB-75 CNS and in the assay with KM12 colon was above 100 µM throughout. Moreover, the TGI in the assay on NCI-H522 lung, in the assay on HOP-92 NSCLC, in the assay on IGROV1 ovarian and in the assay on RPMI-8226 leukemia was above 100 µM each time.

Take `O=C(O)CNC(=O)c1c2ccccc2nc2ccccc12`: the TGI in the assay with HT29 colon, in the assay on CAKI-1 renal, with A498 renal, with A549 NSCLC, in the assay on SNB-75 CNS and with KM12 colon was above 100 µM throughout. The TGI in the assay with NCI-H522 lung, in the assay on HOP-92 NSCLC, with IGROV1 ovarian and in the assay with RPMI-8226 leukemia was above 100 µM in each case.

As for `O=c1onc2c3ccccc3ncn12`, the TGI in the assay on HT29 colon, in the assay on CAKI-1 renal, with A498 renal, in the assay with A549 NSCLC, with SNB-75 CNS and in the assay with KM12 colon was above 100 µM throughout. In addition, the TGI in the assay on NCI-H522 lung, with HOP-92 NSCLC, in the assay with IGROV1 ovarian and in the assay on RPMI-8226 leukemia was above 100 µM each time.

Regarding `[N-]=[N+]=C1C(=O)C2CC3CC(C2)CC1C3`, the TGI in the assay on HT29 colon, with CAKI-1 renal, in the assay with A498 renal, in the assay with A549 NSCLC, in the assay with SNB-75 CNS and in the assay on KM12 colon was above 100 µM throughout. In addition, the TGI in the assay with NCI-H522 lung, in the assay on HOP-92 NSCLC, in the assay with IGROV1 ovarian and with RPMI-8226 leukemia was above 100 µM each time.

Consider `Nc1nc(Cl)c(N)c(NCC2(CO)CC(CCCc3ccccc3)C2)n1` (centres undefined), for which the TGI in the assay on HT29 colon is above 22.8 µM; in the assay on CAKI-1 renal it was above 100 µM; with A498 renal it was 66.1 µM; in the assay with A549 NSCLC, above 100 µM; in the assay on SNB-75 CNS, 67.7 µM; in the assay on KM12 colon, above 100 µM. For the same compound, the TGI was 19.6 µM with NCI-H522 lung, above 100 µM in the assay on HOP-92 NSCLC, above 73.9 µM in the assay with IGROV1 ovarian and above 50.1 µM with RPMI-8226 leukemia.

As to `CC1OC(O[C@H]2/C=C/C=C/C=C/C=C/C=C/C=C/C=C/[C@H](C)[C@@H](O)[C@@H](C)[C@H](C)OC(=O)CC(O)CC(O)CCC(O)C(O)CC(O)C[C@]3(O)C[C@H](O)C(C(=O)O)C(C2)O3)C(O)[C@H](N)C1O` (some centres undefined), the GI50 was 4.3 µM in the assay with HT29 colon; 3.16 µM in the assay with CAKI-1 renal; 12 µM in the assay with A498 renal; 1670 nM in the assay on A549 NSCLC; 25.3 µM in the assay with SNB-75 CNS; 6.16 µM with KM12 colon. Moreover, the GI50 is 2580 nM with NCI-H522 lung, 3.16 µM in the assay with HOP-92 NSCLC, 2310 nM in the assay with IGROV1 ovarian and 16.6 µM in the assay with RPMI-8226 leukemia. The TGI with HT29 colon was 14.7 µM; in the assay on CAKI-1 renal, 11.7 µM; in the assay with A498 renal, 25.9 µM; with A549 NSCLC it was 3.11 µM; in the assay on SNB-75 CNS it was above 100 µM; with KM12 colon, 20.2 µM. For the same compound, the TGI with NCI-H522 lung worked out at 6.02 µM; in the assay on HOP-92 NSCLC, 15.6 µM; in the assay on IGROV1 ovarian, 4.73 µM; in the assay with RPMI-8226 leukemia it was 59 µM.

Take `COc1cc([C@@H]2c3cc(O)c(OC)cc3C=C(C(N)=O)[C@H]2C(N)=O)ccc1O`: the TGI in the assay with HT29 colon, with CAKI-1 renal, in the assay with A498 renal, in the assay with A549 NSCLC, with SNB-75 CNS and with KM12 colon was above 100 µM throughout. The TGI in the assay with NCI-H522 lung, in the assay on HOP-92 NSCLC, in the assay on IGROV1 ovarian and with RPMI-8226 leukemia was above 100 µM throughout.

In the case of `CCC[C@H](C)C[C@H](C)C[C@H](C)/C=C(\C)[C@@H](O)[C@@H](C)C(=O)CC`, the TGI was 37 µM in the assay on HT29 colon; 37.4 µM with CAKI-1 renal; 42.6 µM with A498 renal; 39.4 µM in the assay with A549 NSCLC; above 100 µM in the assay with SNB-75 CNS; 42 µM with KM12 colon. The TGI with NCI-H522 lung worked out at 36.4 µM; with HOP-92 NSCLC, 38.3 µM; in the assay with IGROV1 ovarian, 36.2 µM; in the assay with RPMI-8226 leukemia, 49 µM.
